Test system: DC.RheoIL12
Experiment: IL-12 secretion from DC.RheoIL12 with or without activating ligand
Assay type: cell-based
Conditions: in the presence of the activating ligand RG-115830 but not in the absence of the ligand
Description: In one embodiment, the invention provides an engineered population of immune cells and TSC. In one embodiment, day 7 cultured DC are treated with recombinant adenovirus encoding an immunomodulator and/or IL-12 driven off a constitutive or inducible promoter, or are infected with mock, control adenovirus vector (rAdψ5), over a range of multiplicity of infection (MOIs). After 48 h, infected DC are harvested and analyzed for phenotype and for production of an immunomodulator and/or IL-12 using a specific ELISA kit (BD-PharMingen, San Diego, Calif.), with a lower level of detection of 62.5 pg/ml.

CCCC(N(NC(=O)c1cccc(OC)c1CC)C(=O)c1cc(C)cc(C)c1)C(C)(C)C (stereo not shown) [RG-115830, 3,5-Dimethyl-benzoic acid N-(1-tert-butyl-butyl)-N′-(2-ethyl-3-methoxy-benzoyl)-hydrazide]
IL-12 secreted from DC.RheoIL12: elevated levels of IL-12 are secreted

— patent US9492482B2, “Engineered cells expressing multiple immunomodulators and uses thereof” (Intrexon Corporation, priority 2008, dated 2016)
